This is an account of results in patent US20260335282A1, “NOVEL 3-ARYLIDENE-2-INDOLINONE DERIVATIVES FOR THERAPEUTIC USE” (ISTANBUL UNIVERSITESI REKTORLUGU, priority 2022, published 2026).

The structures appear in SMILES notation. Several values for one entry are separate records, joined by “and”; a condition that tells them apart may be missing. Equal entries are not always repeated. Bounds are passed on as bounds.

Holding throughout (assay type): cell-based, human
Assay [1] relates to MIAPaCa-2 cells. Put plainly: MTT cytotoxicity, pancreas cancer cells MIAPaCa-2. The settings on record: for selectivity index: MCF-10F/Beas2b vs MIAPaCa-2. The method in brief:
(§1)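 Cells were seeded at 5000 per well and treated next day with compound at 0.1, 1, 5 and 10 μM (final) for 48 and/or 72 h, with matched DMSO controls. MTT was added for 4 h and formazan was dissolved in DMSO and read at 570/630 nm. % viability against control gave IC50 from dose-response curves.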

Assay [2] concerns MIAPaCa-2 cells. In words: Apoptosis/necrosis detection, Annexin V/PI flow cytometry, MiaPaca-2. Conditions: for necrosis compared to control: MiaPaca-2; for apoptosis (early and late) compared to control: MiaPaca-2, IC50 values. Background: Flow cytometry measures light scatter and fluorescence of single cells or particles in a stream.
Another assay concerns HT-29 cells. Put plainly: MTT cytotoxicity, colon cancer cells HT-29. Conditions: MTT. In short, it runs like this:
as §1

A further assay concerns CAKI-1 cells. In words: MTT cytotoxicity, kidney cancer cells CAKI-1. In short, it runs like this:
(§2)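 Healthy HUVEC cells grew in DMEM, cancer lines in RPMI-1640 or DMEM with 10% FBS. After overnight attachment, compounds (0.1, 1, 5, 10 μM) act for 48 and/or 72 h before a 4 h MTT step and 570/630 nm reading; IC50 is taken from dose-response curves.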

For assay [3], the system named is pancreas and kidney cancer cells. Put plainly: Apoptosis detection, Annexin V/PI flow cytometry, pancreas and kidney cancer cells. Here is the method: After incubation with 2-indolinone compounds (IC50 μM concentration; 48 and/or 72 hours), cells are washed twice with PBS and the cell pellet is suspended in Annexin V binding buffer. After this incubation, cells are incubated with FITC-conjugated Annexin V and propidium iodine staining solution for 15 minutes in the dark and at room temperature. Then, cells are analyzed by flow cytometry (Beckman coulter, Navios) (Wlodkowic, D., Skommer, J, Darzynkiewicz, Z. 2009. Flow cytometry-based apoptosis detection, Methods Mol Biol., 559, 1-14).
Whether the 2-indolinone derivatives (5) with the highest selectivity index and general TKI activity stimulated apoptosis and necrosis is determined by Annexin V and propidium iodine staining in pancreas and kidney cancer cells. Annexin V/PI flow cytometry apoptosis values of the tested compounds Y1, Y2, Y3, Y4, Y8 and Y14 are found to be 40% and above in correlation with MTT results. The apoptosis rates of the control groups and the substances are analyzed by t test in GraphPad version 9.0.

Another assay deals with A549 cells. In words: MTT cytotoxicity, lung cancer cells A549. The method in brief:
as §2

For another assay, the system named is HUVEC cells. In words: MTT cytotoxicity, healthy cells HUVEC. Conditions: for Selectivite Index (SI), HUVEC (Table 1): HUVEC vs breast or kidney cancer cells; for Selectivite Index (SI), HUVEC (Table 1) / Selectivite Index, HUVEC (Table 2): cancer line not given; for Selectivite Index, HUVEC (Table 2): HUVEC vs colon or pancreas cancer cells; for IC50: MTT. In short, it runs like this: as §2

Setting [4] is: MTT, no * mark (incubation time not specified).
The mark [5] stands for this setting: no * mark (incubation time not specified).

For the compound `Cc1ccc2c(c1)/C(=C/c1c[nH]c3ccccc13)C(=O)N2Cc1ccccc1` [Y3], the half-inhibitory concentration (IC50) (commonly the concentration needed to halve the response being measured) with MIAPaCa-2 cells [1] (Homo sapiens, MIA PaCa-2, MTT, no * mark (incubation time not given)) was determined as 130 nM; with HT-29 cells (Homo sapiens, HT-29, no * mark (incubation time not given)) it was 2430 nM; with CAKI-1 cells (Homo sapiens, CAKI-1, no * mark (incubation time not given)) it was 4010 nM; with A549 cells (Homo sapiens, A549, no * mark (incubation time not given)), 3970 nM; in the assay on HUVEC cells (Homo sapiens, HUVEC, no * mark (incubation time not given)), 1650 nM. In addition, the selectivity index in the assay with MIAPaCa-2 cells [1] is > 77. Besides, in the assay on MIAPaCa-2 cells [2], the “necrosis compared to control” value is given as “did not cause necrosis”. Also, the “apoptosis (early and late) compared to control” value (shortened to “apoptosis … compared to control”) in the assay with MIAPaCa-2 cells [2] is reported as “increase in apoptosis at IC50 values was statistically significant”. In assay [3], the “Annexin V/PI flow cytometry apoptosis values” was ≥ 40%. Besides, the “Selectivite Index (SI), HUVEC (Table 1)” value in the assay on HUVEC cells is given as 1.89. Further, the “Selectivite Index, HUVEC (Table 2)” value in the assay with HUVEC cells amounted to 12.69.
With `O=C1/C(=C\c2c[nH]c3ccccc23)c2cc(OC(F)(F)F)ccc2N1Cc1ccccc1` [Y4], the selectivity index with MIAPaCa-2 cells [1] is listed as > 19. In addition, the IC50 with MIAPaCa-2 cells [1] (setting [4]) is 530 nM; in the assay on HT-29 cells (setting [5]), 1750 nM; with CAKI-1 cells (setting [5]), 3790 nM; in the assay on A549 cells (setting [5]), > 10000 nM; in the assay with HUVEC cells (setting [5]) it was 2440 nM. For the same compound, the “necrosis compared to control” value in the assay with MIAPaCa-2 cells [2] is “did not cause necrosis”. Also, the “apoptosis … compared to control” value in the assay on MIAPaCa-2 cells [2] is given as “increase in apoptosis at IC50 values was statistically significant”. Also, the “Annexin V/PI flow cytometry apoptosis values” in assay [3] is ≥ 40%. Moreover, the “Selectivite Index, HUVEC (Table 2)” value in the assay on HUVEC cells is 4.28 and 4.60.
Turning to `O=C1/C(=C\c2c[nH]c3ccccc23)c2ccccc2N1Cc1ccccc1` [Y1], the selectivity index in the assay with MIAPaCa-2 cells [1] is listed as > 23. Besides, the concentration for half-maximal inhibition (IC50) in the assay with MIAPaCa-2 cells [1] (setting [4]) was 430 nM; in the assay with HT-29 cells (setting [5]) it was 1810 nM; in the assay with CAKI-1 cells (setting [5]), 3380 nM; in the assay on A549 cells (setting [5]), 9720 nM; with HUVEC cells (setting [5]) it was 2840 nM. In the assay on MIAPaCa-2 cells [2], the “necrosis compared to control” value is on record as “did not cause necrosis”. In the assay with MIAPaCa-2 cells [2], the “apoptosis … compared to control” value was “increase in apoptosis at IC50 values was statistically significant”. Also, the “Annexin V/PI flow cytometry apoptosis values” in assay [3] is ≥ 40%. For the same compound, the “Selectivite Index, HUVEC (Table 2)” value in the assay on HUVEC cells amounted to 6.60.
On to `Cc1ccc2c(c1)/C(=C/c1c[nH]c3ccccc13)C(=O)N2Cc1cccc(F)c1` [Y8], for which the selectivity index in the assay on MIAPaCa-2 cells [1] was > 19. Besides, the IC50 came out at 540 nM in the assay with MIAPaCa-2 cells [1] (setting [4]); 5000 nM in the assay with HT-29 cells (setting [5]); 3280 nM with CAKI-1 cells (setting [5]); 8760 nM in the assay on A549 cells (setting [5]); 2200 nM in the assay on HUVEC cells (setting [5]). Further, the “necrosis compared to control” value with MIAPaCa-2 cells [2] is listed as “did not cause necrosis”. For the same compound, in the assay on MIAPaCa-2 cells [2], the “apoptosis … compared to control” value is listed as “increase in apoptosis at IC50 values was statistically significant”. Further, in assay [3], the “Annexin V/PI flow cytometry apoptosis values” is ≥ 40%. For the same compound, the “Selectivite Index (SI), HUVEC (Table 1)” value in the assay with HUVEC cells is recorded as 2.36. Moreover, in the assay with HUVEC cells, the “Selectivite Index, HUVEC (Table 2)” value came to 4.07.
